Biological target: P. falciparum apicoplast DNA polymerase (Pf-apPOL) (Plasmodium falciparum, UniProt Q8ILY1)
Test: Fluorescence-based high-throughput DNA polymerase assay (molecular beacon), primary screen and dose-response;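 as to % inhibition Apol 40': compound concentration given in µM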
Assay type: biochemical
Conditions: for DNA Pol: 90 min, 10 µM
Outline: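 Single-point screening used 10 µM compound with 20 nM polymerase, 20 nM hairpin substrate and 6 µM dNTPs for 90 min at 25 °C. Confirmatory titrations (2.5–80 µM) followed fluorescence at three times, and IC50 was derived from a fit including a cooperativity term n.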

[1] = "DNA Pol" of the 186 hits list (screen value)

Chain of P. falciparum apicoplast DNA polymerase (Pf-apPOL) (Q8ILY1 entry or part of it): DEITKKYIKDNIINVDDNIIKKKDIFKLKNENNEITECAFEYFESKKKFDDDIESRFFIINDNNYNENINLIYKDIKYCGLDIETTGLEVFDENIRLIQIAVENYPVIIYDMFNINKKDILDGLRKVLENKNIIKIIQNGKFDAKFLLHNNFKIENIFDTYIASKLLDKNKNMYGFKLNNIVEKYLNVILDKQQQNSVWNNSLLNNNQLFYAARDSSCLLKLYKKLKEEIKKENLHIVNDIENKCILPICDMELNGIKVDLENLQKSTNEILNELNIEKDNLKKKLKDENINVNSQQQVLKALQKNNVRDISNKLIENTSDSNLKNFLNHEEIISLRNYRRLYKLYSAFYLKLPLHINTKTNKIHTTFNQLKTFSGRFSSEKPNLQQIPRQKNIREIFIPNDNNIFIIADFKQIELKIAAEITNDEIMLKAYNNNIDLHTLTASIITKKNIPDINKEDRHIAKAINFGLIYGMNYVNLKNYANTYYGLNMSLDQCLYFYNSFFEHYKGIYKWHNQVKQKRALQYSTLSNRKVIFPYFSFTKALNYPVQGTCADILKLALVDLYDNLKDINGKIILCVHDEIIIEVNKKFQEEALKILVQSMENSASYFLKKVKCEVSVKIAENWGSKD

O=C1CCCC2=C1C(c1ccccn1)C1=C(CCCC1=O)O2 [KU0194228]
DNA Pol ('DNA Pol' of the 186 hits list (primary screen value)): 11
DNA Pol (DNA Pol (primary screen value)): 11
% inhibition Apo pol 10' (DRC-1, concentration 2.5): 1.279%
% inhibition Apo pol 10' (DRC-1, concentration 5): 9.9789%
% inhibition Apo pol 10' (DRC-1, concentration 10): 33.5344%
% inhibition Apo pol 10' (DRC-1, concentration 20): 43.7332%
% inhibition Apo pol 10' (DRC-1, concentration 40): 62.1087%
% inhibition Apo pol 10' (DRC-1, concentration 80): 77.9707%
% inhibition Apol 90' (DRC-1, concentration 2.5): 2.669%
% inhibition Apol 90' (DRC-1, concentration 5): 9.934%
% inhibition Apol 90' (DRC-1, concentration 10): 28.061%
% inhibition Apol 90' (DRC-1, concentration 20): 43.923%
% inhibition Apol 90' (DRC-1, concentration 40): 56.4118%
% inhibition Apol 90' (DRC-1, concentration 80): 74.3626%
% inhibition apPOL 180' (DRC-1, concentration 2.5): 5.61%
% inhibition apPOL 180' (DRC-1, concentration 5): 16.0813%
% inhibition apPOL 180' (DRC-1, concentration 10): 29.7893%
% inhibition apPOL 180' (DRC-1, concentration 20): 44.3828%
% inhibition apPOL 180' (DRC-1, concentration 40): 53.3605%
% inhibition apPOL 180' (DRC-1, concentration 80): 68.1872%
% inhibition Apo pol 5' (DRC-2, concentration 2.5): 5%
% inhibition Apo pol 5' (DRC-2, concentration 5): 4%
% inhibition Apo pol 5' (DRC-2, concentration 10): 22%
% inhibition Apo pol 5' (DRC-2, concentration 20): 33%
% inhibition Apo pol 5' (DRC-2, concentration 40): 44%
% inhibition Apo pol 5' (DRC-2, concentration 80): 43%
% inhibition Apol 40' (DRC-2, concentration 2.5): 2.6%
% inhibition Apol 40' (DRC-2, concentration 5): -9%
% inhibition Apol 40' (DRC-2, concentration 10): 15%
% inhibition Apol 40' (DRC-2, concentration 20): 33%
% inhibition Apol 40' (DRC-2, concentration 40): 46%
% inhibition Apol 40' (DRC-2, concentration 80): 52%
% inhibition ApPOL 90' (DRC-2, concentration 2.5): 2%
% inhibition ApPOL 90' (DRC-2, concentration 5): -14%
% inhibition ApPOL 90' (DRC-2, concentration 10): 18%
% inhibition ApPOL 90' (DRC-2, concentration 20): 37%
% inhibition ApPOL 90' (DRC-2, concentration 40): 49%
% inhibition ApPOL 90' (DRC-2, concentration 80): 58%
% inhibition apPOL 180' (DRC-2, concentration 2.5): -0.328%
% inhibition apPOL 180' (DRC-2, concentration 5): -74%
% inhibition apPOL 180' (DRC-2, concentration 10): 22%
% inhibition apPOL 180' (DRC-2, concentration 20): 41%
% inhibition apPOL 180' (DRC-2, concentration 40): 48%
% inhibition apPOL 180' (DRC-2, concentration 80): 60%

O=C1C(=Cc2ccccc2O)Oc2ccc(O)cc21 [KU0196475]
DNA Pol [1]: 17
% inhibition Apo pol 10' (DRC-1, concentration 2.5): -5.1779%
% inhibition Apo pol 10' (DRC-1, concentration 5): -7.445%
% inhibition Apo pol 10' (DRC-1, concentration 10): 3.3875%
% inhibition Apo pol 10' (DRC-1, concentration 20): 10.6699%
% inhibition Apo pol 10' (DRC-1, concentration 40): 41.0111%
% inhibition Apo pol 10' (DRC-1, concentration 80): 68.8562%
% inhibition Apol 90' (DRC-1, concentration 2.5): -1.782%
% inhibition Apol 90' (DRC-1, concentration 5): -1.611%
% inhibition Apol 90' (DRC-1, concentration 10): 10.1306%
% inhibition Apol 90' (DRC-1, concentration 20): 24.1034%
% inhibition Apol 90' (DRC-1, concentration 40): 57.9717%
% inhibition Apol 90' (DRC-1, concentration 80): 77.3146%
% inhibition apPOL 180' (DRC-1, concentration 2.5): 3.033%
% inhibition apPOL 180' (DRC-1, concentration 5): 3.658%
% inhibition apPOL 180' (DRC-1, concentration 10): 21.7009%
% inhibition apPOL 180' (DRC-1, concentration 20): 41.2058%
% inhibition apPOL 180' (DRC-1, concentration 40): 72.3539%
% inhibition apPOL 180' (DRC-1, concentration 80): 79.2388%
% inhibition Apo pol 5' (DRC-2, concentration 2.5): -0.68%
% inhibition Apo pol 5' (DRC-2, concentration 5): 0.901%
% inhibition Apo pol 5' (DRC-2, concentration 10): 18%
% inhibition Apo pol 5' (DRC-2, concentration 20): 28%
% inhibition Apo pol 5' (DRC-2, concentration 40): 40%
% inhibition Apo pol 5' (DRC-2, concentration 80): 45%
% inhibition Apol 40' (DRC-2, concentration 2.5): 0.208%
% inhibition Apol 40' (DRC-2, concentration 5): -7.41%
% inhibition Apol 40' (DRC-2, concentration 10): 18%
% inhibition Apol 40' (DRC-2, concentration 20): 33%
% inhibition Apol 40' (DRC-2, concentration 40): 54%
% inhibition Apol 40' (DRC-2, concentration 80): 65%
% inhibition ApPOL 90' (DRC-2, concentration 2.5): 0%
% inhibition ApPOL 90' (DRC-2, concentration 5): -14%
% inhibition ApPOL 90' (DRC-2, concentration 10): 15%
% inhibition ApPOL 90' (DRC-2, concentration 20): 29%
% inhibition ApPOL 90' (DRC-2, concentration 40): 53%
% inhibition ApPOL 90' (DRC-2, concentration 80): 66%
% inhibition apPOL 180' (DRC-2, concentration 2.5): -3.48%
% inhibition apPOL 180' (DRC-2, concentration 5): -88%
% inhibition apPOL 180' (DRC-2, concentration 10): 8%
% inhibition apPOL 180' (DRC-2, concentration 20): 17%
% inhibition apPOL 180' (DRC-2, concentration 40): 45%
% inhibition apPOL 180' (DRC-2, concentration 80): 63%
DNA Pol (primary screen value, DNA Pol): 17

Cc1ccc2c(C(=O)NCCc3cccnc3)cc(NC(=O)C(C)C)cc2n1 [KU0206096]
DNA Pol [1]: 22
% inhibition Apo pol 10' (DRC-1, concentration 2.5): 2.289%
% inhibition Apo pol 10' (DRC-1, concentration 5): 10.1779%
% inhibition Apo pol 10' (DRC-1, concentration 10): 28.6368%
% inhibition Apo pol 10' (DRC-1, concentration 20): 37.57%
% inhibition Apo pol 10' (DRC-1, concentration 40): 75.2311%
% inhibition Apo pol 10' (DRC-1, concentration 80): 89.4827%
% inhibition Apol 90' (DRC-1, concentration 2.5): -0.2653%
% inhibition Apol 90' (DRC-1, concentration 5): 3.264%
% inhibition Apol 90' (DRC-1, concentration 10): 15.2748%
% inhibition Apol 90' (DRC-1, concentration 20): 20.9182%
% inhibition Apol 90' (DRC-1, concentration 40): 58.3993%
% inhibition Apol 90' (DRC-1, concentration 80): 83.2702%
% inhibition apPOL 180' (DRC-1, concentration 2.5): -4.525%
% inhibition apPOL 180' (DRC-1, concentration 5): -3.235%
% inhibition apPOL 180' (DRC-1, concentration 10): 5.405%
% inhibition apPOL 180' (DRC-1, concentration 20): 7.166%
% inhibition apPOL 180' (DRC-1, concentration 40): 41.4073%
% inhibition apPOL 180' (DRC-1, concentration 80): 75.1879%
% inhibition Apo pol 5' (DRC-2, concentration 2.5): -0.312%
% inhibition Apo pol 5' (DRC-2, concentration 5): 5.56%
% inhibition Apo pol 5' (DRC-2, concentration 10): 24%
% inhibition Apo pol 5' (DRC-2, concentration 20): 40%
% inhibition Apo pol 5' (DRC-2, concentration 40): 49%
% inhibition Apo pol 5' (DRC-2, concentration 80): 49%
% inhibition Apol 40' (DRC-2, concentration 2.5): 1.82%
% inhibition Apol 40' (DRC-2, concentration 5): 5.58%
% inhibition Apol 40' (DRC-2, concentration 10): 24%
% inhibition Apol 40' (DRC-2, concentration 20): 42%
% inhibition Apol 40' (DRC-2, concentration 40): 62%
% inhibition Apol 40' (DRC-2, concentration 80): 70%
% inhibition ApPOL 90' (DRC-2, concentration 2.5): 1.09%
% inhibition ApPOL 90' (DRC-2, concentration 5): 5.45%
% inhibition ApPOL 90' (DRC-2, concentration 10): 21%
% inhibition ApPOL 90' (DRC-2, concentration 20): 39%
% inhibition ApPOL 90' (DRC-2, concentration 40): 63%
% inhibition ApPOL 90' (DRC-2, concentration 80): 75%
% inhibition apPOL 180' (DRC-2, concentration 2.5): -1.29%
% inhibition apPOL 180' (DRC-2, concentration 5): 2.66%
% inhibition apPOL 180' (DRC-2, concentration 10): 13%
% inhibition apPOL 180' (DRC-2, concentration 20): 28%
% inhibition apPOL 180' (DRC-2, concentration 40): 57%
% inhibition apPOL 180' (DRC-2, concentration 80): 78%
DNA Pol (primary screen value, DNA Pol): 22

From PMC9090415, “Discovery of small molecule inhibitors of Plasmodium falciparum apicoplast DNA polymerase” (Journal of Enzyme Inhibition and Medicinal Chemistry, 2022)
